Series [1] concerns the target Recombinant human JAK3 enzyme (JAK3 kinase region; Ala795-Ser1124) (Homo sapiens, UniProt P52333). Put plainly: JAK3 Kinase Assay (Kinase-Glo luminescent, ATP consumption). The note with it: read-out: Inhibition rate (%) of JAK3 kinase activity. For orientation: Kinase-Glo reads ATP consumption through a luciferase reaction.
Protocol: Recombinant human JAK3 enzyme (JAK3 kinase region; Ala795-Ser1124) was purchased from Carna Biosciences, Inc.
The reaction was conducted in a kinase buffer (reaction volume: a total of 50 μl) containing 8 mM MOPS (pH 7.0), 0.2 mM EDTA, a test compound solution prepared to each concentration and 0.5 μg/ml JAK3 enzyme using a 96-well polystyrene plate (clear-bottom white-wall). […] After incubating them at room temperature for 2 hours, 50 μl of Kinase-Glo Luminescent Kinase Assay reagent (Promega) was added to each well, and further incubated at room temperature for 10 minutes. Using a chemiluminescence microplate reader MicroLumat LB96P (Berthold), chemiluminescence intensity was measured to quantitate the amount of ATP remaining after reaction. From the amount of ATP consumed in the phosphorylation reaction, the inhibition rate (%) of JAK3 kinase activity was determined.

Inhibition and melting point data for 13 compounds are collected here from patent US8575153B2 (Kowa Company, Ltd., priority 2008, dated 2013).

Recombinant human JAK3 enzyme (JAK3 kinase region; Ala795-Ser1124), sequence (P52333 795-1124): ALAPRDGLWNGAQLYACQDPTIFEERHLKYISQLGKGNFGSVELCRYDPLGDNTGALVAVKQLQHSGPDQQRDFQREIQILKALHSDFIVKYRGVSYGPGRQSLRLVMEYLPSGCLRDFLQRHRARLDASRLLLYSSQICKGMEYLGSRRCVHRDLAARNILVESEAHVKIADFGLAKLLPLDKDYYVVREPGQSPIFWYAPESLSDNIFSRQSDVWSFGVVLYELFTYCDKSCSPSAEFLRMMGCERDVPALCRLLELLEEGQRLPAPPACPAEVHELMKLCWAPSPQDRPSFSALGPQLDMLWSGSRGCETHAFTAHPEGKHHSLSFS

For `NC(=O)c1cnc(Nc2cccc(N3CCOCC3)c2)cc1NCc1cc(F)cc(F)c1` [Example 131, 4-[(3,5-difluorobenzyl)amino]-6-[(3-morpholinophenyl)amino]pyridine-3-carboxyamide], the melting point (usually the temperature of the solid-liquid transition) is 197 to 198 °C (dec.). Also, the inhibition (as a rule, the relative decrease from the control value, in per cent) at 0.1 µM in series [1] was 91%.
Turning to `CC(C)S(=O)(=O)N1CCN(c2ccc(Nc3cc(NCc4cc(F)cc(F)c4)c(C(N)=O)cn3)cc2)CC1` [Example 170, 4-[(3,5-difluorobenzyl)amino]-6-({4-[4-(propan-2-ylsulfonyl)piperazin-1-yl]phenyl}amino) pyridine-3-carboxyamide], the melting point was 239 to 242 °C (dec.). In addition, the inhibition at 0.1 µM in series [1] stood at 68%.
Turning to `NC(=O)c1cnc(Nc2ccc(NC3CCNCC3)cc2)cc1NCc1ccccc1` [Example 289, 4-(benzylamino)-6-{[4-(piperidin-4-ylamino)phenyl]amino}pyridine-3-carboxyamide], the melting point is 169 to 172 °C (dec.). In addition, the inhibition at 0.1 µM in series [1] was 74%.
On the same counts, the results for `C[C@@H]1CN(c2ccc(Nc3cc(NCc4c(F)cccc4F)c(C(N)=O)cn3)cc2)C[C@H](C)N1` [Example 143, 4-[(2,6-difluorobenzyl)amino]-6-({4-[(3R,5S)-3,5-dimethylpiperazin-1-yl]phenyl}amino) pyridine-3-carboxyamide] are 218 to 219 °C and 88%.
As for `CS(=O)(=O)NCCN1CCN(c2ccc(Nc3cc(NCc4cc(F)cc(F)c4)c(C(N)=O)cn3)cc2)CC1` [Example 249, 4-[(3,5-difluorobenzyl)amino]-6-{[4-(4-{2-[(methylsulfonyl)amino]ethyl}piperazin-1-yl]phenyl]amino}pyridine-3-carboxyamide], the melting point was 216 to 219 °C (dec.). In addition, in series [1], the inhibition at 0.1 µM came out at 81%.
On the same counts, the results for `Cc1cc(Nc2cc(NCc3cc(F)cc(F)c3)c(C(N)=O)cn2)ccc1N1CCOCC1` [Example 126, 4-[(3,5-difluorobenzyl)amino]-6-[(3-methyl-4-morpholinophenyl)amino]-pyridine-3-carboxyamide] are 223 to 224 °C (dec.) and 60%.
The matching figures for `CC(=O)N1CCCN(c2ccc(Nc3cc(NCc4ccccc4)c(C(N)=O)cn3)cc2)CC1` [Example 256, 6-{[4-(4-acetyl-1,4-diazepan-1-yl)phenyl]amino}-4-(benzylamino)pyridine-3-carboxyamide]: 224 to 227 °C and 77%.
For `Cc1c(F)cccc1CNc1cc(Nc2ccc(N3CCOCC3)cc2)ncc1C(N)=O` [Example 100, 4-[(3-fluoro-2-methylbenzyl)amino]-6-[(4-morpholinophenyl)amino]pyridine-3-carboxyamide], the melting point was in the range of 229 to 230 °C. The inhibition at 0.1 µM in series [1] was found to be 69%.
On the same counts, the results for `N#Cc1cc(Nc2cc(NCc3cc(F)cc(F)c3)c(C(N)=O)cn2)ccc1N1CCOCC1` [Example 125, 6-[(3-cyano-4-morpholinophenyl)amino]-4-[(3,5-difluorobenzyl)amino]pyridine-3-carboxyamide] are 213.5 to 214.1 °C (dec.) and 61%.
For `CS(=O)(=O)Nc1ccc(Nc2cc(NCc3cc(F)cc(F)c3)c(C(N)=O)cn2)cc1` [Example 159, 4-[(3,5-difluorobenzyl)amino]-6-({4-[(methylsulfonyl)amino]phenyl}amino)pyridine-3-carboxyamide], the melting point is 236 to 238 °C (dec.). Further, the inhibition at 0.1 µM in series [1] worked out at 100%.
The matching figures for `CCN(CC)CCN1CCN(c2ccc(Nc3cc(NCc4cccc([N+](=O)[O-])c4)c(C(N)=O)cn3)cc2)CC1` [Example 235, 6-[(4-{4-[2-(diethylamino)ethyl]piperazin-1-yl}phenyl)amino]-4-[(3-nitrobenzyl)amino]pyridine-3-carboxyamide]: 165 to 166 °C and 82%.
The matching figures for `CCN(CC)CC(=O)N1CCN(c2ccc(Nc3cc(NCc4cccc([N+](=O)[O-])c4)c(C(N)=O)cn3)cc2)CC1` [Example 276, 6-({4-[4-(N,N-diethylglycyl)piperazin-1-yl]phenyl}amino)-4-[(3-nitrobenzyl)amino]pyridine-3-carboxyamide]: 190 to 191 °C (dec.) and 68%.
On the same counts, the results for `NC(=O)c1cnc(Nc2ccc(N3CCCNCC3)cc2)cc1NCc1ccccc1` [Example 226, 4-(benzylamino)-6-{[4-(1,4-diazepan-1-yl)phenyl]amino}pyridine-3-carboxyamide] are 165 to 167 °C and 61%.
